Measurements: patent US9376433B2, “(AZA-)isoquinolinone derivatives” (MERCK PATENT GMBH, priority 2012, dated 2016)
pIC50: −log10 of the molar value.

Assays:
Assay type in all cases: biochemical
TNKS2 = biological target: T1, TNKS2 (Homo sapiens, UniProt Q9H2K2); assay: TNKS2 activity ELISA (autoparsylation assay); conditions: GST-tagged Tnks-2 (873-1166 aa), luminescence
T1 construct: GST-tagged Tnks-2 (873-1166 aa, prepared in-house); made in house
Method: (§1) Description of the TNKS1 and TNKS2 ELISA Assay
(§2) Biochemical activity testing of TNKS 1 and 2: activity ELISA (Autoparsylation assay)
(§3) For analysis of autoparsylation activity of TNKS 1 and 2 an activity ELISA iss performed: In the first step GST tagged TNKS is captured on a Glutathione coated plate. Then the activity assay with biotinylated NAD is performed in the absence/presence of the compounds. During the enzymatic reaction GST tagged TNKS transfers biotinylated ADP-ribose to itself from biotinylated NAD as co-substrate. For the detection streptavidin-HRP conjugate is added that binds to the biotinylated TNKS and is thereby captured to the plates. The amount of biotinylated resp. autoparsylated TNKS is detected with a luminescence substrate for HRP. The level of the luminescence signal correlats directly with the amount of autoparsylated TNKS and therefore with activity of TNKS.
(§4) The acitivity ELISA is performed in 384 well Glutathione coated microtiter plates (Express capture Glutathione coated plate, Biocat, Heidelberg, Germany). The plates are pre-equilibrated with PBS. Then the plates are incubated with 50 μl 20 ng/well GST-tagged Tnks-1 (1023-1327 aa, prepared in-house), respectively GST-tagged Tnks-2 (873-1166 aa, prepared in-house) in assay buffer (50 mM HEPES, 4 mM Mg-chloride, 0.05% Pluronic F-68, 2 mM DTT, pH 7.7) overnight at 4° C. The plates are washed 3 times with PBS-Tween-20. The wells are blocked by incubation at room temperature for 20 minutes with 50 μl blocking buffer (PBS, 0.05% Tween-20, 0.5% BSA). Afterwards the plates are washed 3 times with PBS-Tween-20. The enzymatic reaction is performed in 50 μl reaction solution (50 mM HEPES, 4 mM Mg-chloride, 0.05% Pluronic F-68, 1.4 mM DTT, 0.5% DMSO, pH 7.7) with10 μM bio-NAD (Biolog, Life science Inst., Bremen, Germany) as co-substrate in the absence or presence of the test compound (10 dilution concentrations) for 1 hour at 30° C. The reaction is stopped by 3 times washing with PBS-Tween-20. For the detection 50 μl of 20 ng/μl Streptavidin, HRP conjugate (MoBiTec, Göttingen, Germany) in PBS/0.05% Tween-20/0.01% BSA are added and the plates are incubated for 30 minutes at room temperature. After three times washing with PBS-Tween-20 50 μl of SuperSignal ELISA Femto Maximum sensitivity substrate solution (ThermoFisherScientific (Pierce), Bonn, Germany) are added. Following a 1 minute incubation at room temperature luminescence signals are measured with an Envision multimode reader (Perkin Elmer LAS Germany GmbH) at 700 nm. The full value used is the inhibitor-free reaction. The pharmacological zero value used is XAV-939 (Tocris) in a final concentration of 5 μM. The inhibitory values (IC50) are determined using either the program Symyx Assay Explorer® or Condosseo® from GeneData.

Tankyrase-1 = biological target: T2, Tankyrase-1 (Homo sapiens, UniProt O95271); assay: Tankyrase 1 autoparsylation assay (HTRF enzyme assay); conditions: GST-tagged Tankyrase-1 (1023-1327 aa)
T2 construct: GST-tagged Tankyrase-1 (1023-1327 aa)
Method: Biochemical activity testing of Tankyrase 1 and 2: Autoparsylation assay
The autoparsylation assay is run in two steps: the enzymatic reaction in which GST-tagged Tankyrase-1, resp Tankyrase-2 transferred biotinylated ADP-ribose to itself from biotinylated NAD as co-substrate and the detection reaction where a time resolved FRET between cryptate labelled anti-GST bound to the GST tag of the enzyme and Xlent® labelled-streptavidin bound the biotin-parsylation residue is analysed. The autoparsylation activity was detectable directly via the increase in HTRF signal.
The autoparsylation assay is performed as 384-well HTRF® (Cisbio, Codolet, France) assay format in Greiner low volume nb 384-well microtiter plates and is used for high throughput screen. 250 nM GST-tagged Tankyrase-1 (1023-1327 aa), respectively about 250 nM GST-tagged Tankyrase-2 (873-1166 aa) and 5 μM bio-NAD (Biolog, Life science Inst., Bremen, Germany) as co-substrate are incubated in a total volume of 5 μl (50 mM HEPES, 4 mM Mg-chloride, 0.05% Pluronic F-68, 1.4 mM DTT, 0.5% DMSO, pH 7.7) in the absence or presence of the test compound (10 dilution concentrations) for 90 min at 30° C. The reaction is stopped by the addition of 1 μl 50 mM EDTA solution. 2 μl of the detection solution (1.6 μM SA-Xlent® (Cisbio, Codolet, France), 7.4 nM Anti-GST-K® (Eu-labelled anti-GST, Cisbio, Codolet, France) in 50 mM HEPES, 800 mM KF, 0.1% BSA, 20 mM EDTA, 0.1% CHAPS, pH 7.0) are added. After 1 h incubation at room temperature the HTRF is measured with an Envision multimode reader (Perkin Elmer LAS Germany GmbH) at excitation wavelength 340 nm (laser mode) and emission wavelengths 615 nm and 665 nm. The ratio of the emission signals is determined. The full value used is the inhibitor-free reaction. The pharmacological zero value used is XAV-939 (Tocris) in a final concentration of 5 μM. The inhibitory values (IC50) are determined using either the program Symyx Assay Explorer® or Condosseo® from GeneData.

TNKS1 = biological target: T3, TNKS1 (Homo sapiens, UniProt O95271); assay: TNKS1 activity ELISA (autoparsylation assay); conditions: GST-tagged Tnks-1 (1023-1327 aa), luminescence
T3 construct: GST-tagged Tnks-1 (1023-1327 aa, prepared in-house); made in house
Method: as §1, §2, §3, §4

T1 sequence (Q9H2K2 873-1166): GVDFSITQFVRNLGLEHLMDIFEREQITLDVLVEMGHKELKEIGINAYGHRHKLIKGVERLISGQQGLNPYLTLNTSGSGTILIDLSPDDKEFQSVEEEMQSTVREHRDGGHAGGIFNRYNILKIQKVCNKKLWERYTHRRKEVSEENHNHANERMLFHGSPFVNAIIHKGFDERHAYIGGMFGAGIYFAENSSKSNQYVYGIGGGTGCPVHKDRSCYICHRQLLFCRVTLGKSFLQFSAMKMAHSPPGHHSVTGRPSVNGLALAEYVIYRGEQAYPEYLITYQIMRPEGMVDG
T3 sequence (O95271 1023-1327): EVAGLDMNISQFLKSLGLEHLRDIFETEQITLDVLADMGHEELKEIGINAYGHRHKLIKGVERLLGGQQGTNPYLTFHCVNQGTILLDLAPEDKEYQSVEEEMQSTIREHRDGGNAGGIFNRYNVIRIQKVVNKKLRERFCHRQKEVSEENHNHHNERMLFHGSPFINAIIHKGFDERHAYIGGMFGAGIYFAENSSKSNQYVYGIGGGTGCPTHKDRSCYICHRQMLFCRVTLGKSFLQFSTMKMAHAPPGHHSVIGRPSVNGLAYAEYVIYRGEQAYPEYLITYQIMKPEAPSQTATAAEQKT
T2 sequence (O95271 1023-1327): as above

| SMILES | pIC50 (TNKS2) | pIC50 (Tankyrase-1) | pIC50 (TNKS1) |
| --- | --- | --- | --- |
| CC(C)(O)c1ccc(-c2cc3ccccc3c(=O)[nH]2)cc1 [Compound A3, 3-[4-(1-hydroxy-1-methyl-ethyl)-phenyl]-2H-isoquinolin-1-one] | > 6.52 | > 6.52 | > 6.52 |
| CC(C)(O)c1ccc(-c2cc3cc(F)ccc3c(=O)[nH]2)cc1 [Compound A5, 6-fluoro-3-[4-(1-hydroxy-1-methyl-ethyl)-phenyl]-2H-isoquinolin-1-one] | > 6.52 | > 6.52 | > 6.52 |
| CC(C)(O)c1ccc(-c2cc3ccc(F)cc3c(=O)[nH]2)cc1 [Compound A6, 7-fluoro-3-[4-(1-hydroxy-1-methyl-ethyl)-phenyl]-2H-isoquinolin-1-one] | > 6.52 | > 6.52 | > 6.52 |
| Cc1ccc(-c2cc3ccc(F)cc3c(=O)[nH]2)cc1 [Compound A9, 7-fluoro-3-p-tolyl-2H-isoquinolin-1-one] | > 6.52 | > 6.52 | > 6.52 |
| Cc1ccc(-c2cc3cc(F)ccc3c(=O)[nH]2)cc1 [Compound A10, 6-fluoro-3-p-tolyl-2H-isoquinolin-1-one] | > 6.52 | 5.52 to 6.52 | > 6.52 |
| Cc1ccc(-c2cc3cccc(F)c3c(=O)[nH]2)cc1 [Compound A11, 8-fluoro-3-p-tolyl-2H-isoquinolin-1-one] | > 6.52 | > 6.52 | > 6.52 |
| Cc1ccc(-c2cc3c(F)cccc3c(=O)[nH]2)cc1 [Compound A12, 5-fluoro-3-p-tolyl-2H-isoquinolin-1-one] | > 6.52 | > 6.52 | > 6.52 |
| Cn1cc(-c2ccc(-c3cc4ccncc4c(=O)[nH]3)cc2)cn1 [Compound A14, 3-[4-(1-Methyl-1H-pyrazol-4-yl)-phenyl]-2H-[2,7]naphthyridin-1-one] | > 6.52 | > 6.52 | > 6.52 |
| COC(C)(C)c1ccc(-c2cc3ccccc3c(=O)[nH]2)cc1 [Compound A15, 3-[4-(1-methoxy-1-methyl-ethyl)-phenyl]-2H-isoquinolin-1-one] | > 6.52 | > 6.52 | > 6.52 |
| CC(C)(OCCO)c1ccc(-c2cc3ccc(F)cc3c(=O)[nH]2)cc1 [Compound A16, 7-fluoro-3-{4-[1-(2-hydroxy-ethoxy)-1-methyl-ethyl]-phenyl}-2H-isoquinolin-1-one] | > 6.52 | > 6.52 | > 6.52 |
| C=C(C)c1ccc(-c2cc3ccc(F)cc3c(=O)[nH]2)cc1 [Compound A17, 7-fluoro-3-(4-isopropenyl-phenyl)-2H-isoquinolin-1-one] | > 6.52 | > 6.52 | > 6.52 |
| Cn1cc(-c2ccc(-c3cc4ccc(F)cc4c(=O)[nH]3)cc2)cn1 [Compound A18, 7-fluoro-3-[4-(1-methyl-1H-pyrazol-4-yl)-phenyl]-2H-isoquinolin-1-one] | > 6.52 | > 6.52 | > 6.52 |
| CC(C)(N)c1ccc(-c2cc3ccc(F)cc3c(=O)[nH]2)cc1 [Compound A20, 3-[4-(1-amino-1-methyl-ethyl)phenyl]-7-fluoro-2H-isoquinolin-1-one] | > 6.52 | > 6.52 | > 6.52 |
| CC(C)(O)c1ccc(-c2cc3cnccc3c(=O)[nH]2)cc1 [Compound A23, 3-[4-(1-hydroxy-1-methyl-ethyl)phenyl]-2H-2,6-naphthyridin-1-one] | > 6.52 | > 6.52 | > 6.52 |
| CC(C)(O)c1ccc(-c2cc3ccncc3c(=O)[nH]2)cc1 [Compound A24, 3-[4-(1-hydroxy-1-methyl-ethyl)phenyl]-2H-2,7-naphthyridin-1-one] | > 6.52 | > 6.52 | > 6.52 |
| CC(C)(O)c1ccc(-c2cc3cccc(F)c3c(=O)[nH]2)cc1 [Compound A27, 8-fluoro-3-[4-(1-hydroxy-1-methyl-ethyl)phenyl]-2H-isoquinolin-1-one] | > 6.52 | > 6.52 | > 6.52 |
| CC(C)(O)c1ccc(-c2cc3c(F)cccc3c(=O)[nH]2)cc1 [Compound A28, 5-fluoro-3-[4-(1-hydroxy-1-methyl-ethyl)phenyl]-2H-isoquinolin-1-one] | > 6.52 | > 6.52 | > 6.52 |
| Cc1ccc(-c2cc3c(C)cccc3c(=O)[nH]2)cc1 [Compound A29, 5-methyl-3-(p-tolyl)-2H-isoquinolin-1-one] | > 6.52 | > 6.52 | > 6.52 |
| CC(C)(O)c1ccc(-c2cc3c(F)cc(F)cc3c(=O)[nH]2)cc1 [Compound A33, 5,7-difluoro-3-[4-(1-hydroxy-1-methyl-ethyl)-phenyl]-2H-isoquinolin-1-one] | > 6.52 | > 6.52 | > 6.52 |
